Values of other authors, collected in article PMC8513935.
Values belong to the compound of their own block, whether it stands above or below them.

How the values were obtained:
[1] = log P octanol/water from commercial databases, averaged (the ESI); conditions: Octanol (wet), 25 C
[2] = experimental, compiled by the authors from the literature (the ESI cites the sources)
[3] = derived by the authors as gas->solvent minus gas->water (a hypothetical dry solvent; the ESI), not a two-phase measurement

Compound: Clc1cccc(Cl)c1
log K of transfer, water to solvent [1]: 3.6 log10 K
log K of transfer, gas to solvent ([2]; CCl4, 25 C): 4.55 log10 K
log K of transfer, gas to solvent ([2]; Chloroform, 25 C): 4.59 log10 K
log K of transfer, gas to solvent ([2]; Hexadecane, 25 C): 4.41 log10 K
log K of transfer, gas to solvent ([2]; Hexane, 25 C): 4.53 log10 K
log K of transfer, gas to solvent ([2]; Octan-1-ol, 25 C): 4.13 log10 K
log K of transfer, gas to solvent ([2]; Water, 25 C): 0.72 log10 K
log K of transfer, water to solvent ([3]; CCl4, 25 C): 3.83 log10 K
log K of transfer, water to solvent ([3]; Chloroform, 25 C): 3.87 log10 K
log K of transfer, water to solvent ([3]; Hexadecane, 25 C): 3.69 log10 K
log K of transfer, water to solvent ([3]; Hexane, 25 C): 3.81 log10 K
log K of transfer, water to solvent ([3]; Octan-1-ol(dry), 25 C): 3.41 log10 K

Compound: CCC(CC)(CC)CC
log K of transfer, water to solvent [1]: 5.19 log10 K
log K of transfer, gas to solvent ([2]; Hexadecane, 25 C): 4.01 log10 K
log K of transfer, gas to solvent ([2]; Hexane, 25 C): 4.31 log10 K
log K of transfer, gas to solvent ([2]; Methanol, 25 C): 3.15 log10 K
log K of transfer, gas to solvent ([2]; Water, 25 C): -1.63 log10 K
log K of transfer, water to solvent ([3]; Hexadecane, 25 C): 5.64 log10 K
log K of transfer, water to solvent ([3]; Hexane, 25 C): 5.94 log10 K
log K of transfer, water to solvent ([3]; Methanol, 25 C): 4.78 log10 K

Compound: CN(C)C
log K of transfer, water to solvent [1]: 0.19 log10 K
log K of transfer, gas to solvent ([2]; Benzene, 25 C): 2.05 log10 K
log K of transfer, gas to solvent ([2]; Butan-1-ol, 25 C): 2.13 log10 K
log K of transfer, gas to solvent ([2]; CCl4, 25 C): 2.12 log10 K
log K of transfer, gas to solvent ([2]; Chlorobenzene, 25 C): 2.05 log10 K
log K of transfer, gas to solvent ([2]; Chloroform, 25 C): 2.86 log10 K
log K of transfer, gas to solvent ([2]; Cyclohexane, 25 C): 1.93 log10 K
log K of transfer, gas to solvent ([2]; Diethyl Ether, 25 C): 1.73 log10 K
log K of transfer, gas to solvent ([2]; Ethanol, 25 C): 2.67 log10 K
log K of transfer, gas to solvent ([2]; Hexadecane, 25 C): 1.62 log10 K
log K of transfer, gas to solvent ([2]; Hexane, 25 C): 1.93 log10 K
log K of transfer, gas to solvent ([2]; Octan-1-ol, 25 C): 1.94 log10 K
log K of transfer, gas to solvent ([2]; Propan-1-ol, 25 C): 2.56 log10 K
log K of transfer, gas to solvent ([2]; Propanone, 25 C): 1.88 log10 K
log K of transfer, gas to solvent ([2]; Toluene, 25 C): 1.99 log10 K
log K of transfer, gas to solvent ([2]; Water, 25 C): 2.35 log10 K
log K of transfer, water to solvent ([3]; Acetone, 25 C): -0.47 log10 K
log K of transfer, water to solvent ([3]; Benzene, 25 C): -0.3 log10 K
log K of transfer, water to solvent ([3]; Butan-1-ol, 25 C): -0.22 log10 K
log K of transfer, water to solvent ([3]; CCl4, 25 C): -0.23 log10 K
log K of transfer, water to solvent ([3]; Chlorobenzene, 25 C): -0.3 log10 K
log K of transfer, water to solvent ([3]; Chloroform, 25 C): 0.51 log10 K
log K of transfer, water to solvent ([3]; Cyclohexane, 25 C): -0.42 log10 K
log K of transfer, water to solvent ([3]; Diethyl Ether, 25 C): -0.62 log10 K
log K of transfer, water to solvent ([3]; Ethanol, 25 C): 0.32 log10 K
log K of transfer, water to solvent ([3]; Hexadecane, 25 C): -0.73 log10 K
log K of transfer, water to solvent ([3]; Hexane, 25 C): -0.424 log10 K
log K of transfer, water to solvent ([3]; Octan-1-ol(dry), 25 C): -0.41 log10 K
log K of transfer, water to solvent ([3]; Propan-1-ol, 25 C): 0.21 log10 K
log K of transfer, water to solvent ([3]; Toluene, 25 C): -0.36 log10 K

Compound: CCCl
log K of transfer, water to solvent [1]: 1.43 log10 K
log K of transfer, gas to solvent ([2]; 2-Methylpropan-1-ol, 25 C): 1.78 log10 K
log K of transfer, gas to solvent ([2]; 2-Methylpropan-2-ol, 25 C): 1.79 log10 K
log K of transfer, gas to solvent ([2]; 3-Methylbutan-1-ol, 25 C): 1.78 log10 K
log K of transfer, gas to solvent ([2]; Butan-1-ol, 25 C): 1.83 log10 K
log K of transfer, gas to solvent ([2]; Butan-2-ol, 25 C): 1.77 log10 K
log K of transfer, gas to solvent ([2]; Chlorobenzene, 25 C): 2.17 log10 K
log K of transfer, gas to solvent ([2]; Hexadecane, 25 C): 1.68 log10 K
log K of transfer, gas to solvent ([2]; Hexane, 25 C): 1.91 log10 K
log K of transfer, gas to solvent ([2]; Methanol, 25 C): 1.93 log10 K
log K of transfer, gas to solvent ([2]; Pentan-1-ol, 25 C): 1.81 log10 K
log K of transfer, gas to solvent ([2]; Propan-1-ol, 25 C): 1.86 log10 K
log K of transfer, gas to solvent ([2]; Propan-2-ol, 25 C): 1.81 log10 K
log K of transfer, gas to solvent ([2]; Water, 25 C): 0.46 log10 K
log K of transfer, water to solvent ([3]; 2-Methylpropan-1-ol, 25 C): 1.32 log10 K
log K of transfer, water to solvent ([3]; 2-Methylpropan-2-ol, 25 C): 1.33 log10 K
log K of transfer, water to solvent ([3]; 3-Methylbutan-1-ol, 25 C): 1.32 log10 K
log K of transfer, water to solvent ([3]; Butan-1-ol, 25 C): 1.37 log10 K
log K of transfer, water to solvent ([3]; Butan-2-ol, 25 C): 1.31 log10 K
log K of transfer, water to solvent ([3]; Chlorobenzene, 25 C): 1.71 log10 K
log K of transfer, water to solvent ([3]; Hexadecane, 25 C): 1.22 log10 K
log K of transfer, water to solvent ([3]; Hexane, 25 C): 1.45 log10 K
log K of transfer, water to solvent ([3]; Methanol, 25 C): 1.47 log10 K
log K of transfer, water to solvent ([3]; Pentan-1-ol, 25 C): 1.35 log10 K
log K of transfer, water to solvent ([3]; Propan-1-ol, 25 C): 1.4 log10 K
log K of transfer, water to solvent ([3]; Propan-2-ol, 25 C): 1.35 log10 K

Now from value to compound:

log K of transfer, water to solvent [1]: 3.7 log10 K
log K of transfer, gas to solvent ([2]; Hexadecane, 25 C): 4.23 log10 K
log K of transfer, gas to solvent ([2]; Hexane, 25 C): 4.07 log10 K
log K of transfer, gas to solvent ([2]; Methanol, 25 C): 3.91 log10 K
log K of transfer, gas to solvent ([2]; Octan-1-ol, 25 C): 4.09 log10 K
log K of transfer, gas to solvent ([2]; Propan-2-ol, 25 C): 3.93 log10 K
log K of transfer, gas to solvent ([2]; Tetrahydrofuran, 25 C): 4.87 log10 K
log K of transfer, gas to solvent ([2]; Water, 25 C): 0.39 log10 K
log K of transfer, water to solvent ([3]; Hexadecane, 25 C): 3.84 log10 K
log K of transfer, water to solvent ([3]; Hexane, 25 C): 3.68 log10 K
log K of transfer, water to solvent ([3]; Methanol, 25 C): 3.52 log10 K
log K of transfer, water to solvent ([3]; Octan-1-ol(dry), 25 C): 3.7 log10 K
log K of transfer, water to solvent ([3]; Propan-2-ol, 25 C): 3.54 log10 K
log K of transfer, water to solvent ([3]; Tetrahydrofuran, 25 C): 4.48 log10 K
Compound: CCCc1ccccc1

log K of transfer, water to solvent [1]: 4.49 log10 K
log K of transfer, gas to solvent ([2]; 2-Methylpropan-1-ol, 25 C): 7.01 log10 K
log K of transfer, gas to solvent ([2]; 2-Methylpropan-2-ol, 25 C): 7 log10 K
log K of transfer, gas to solvent ([2]; 3-Methylbutan-1-ol, 25 C): 7.13 log10 K
log K of transfer, gas to solvent ([2]; Acetonitrile, 25 C): 7.73 log10 K
log K of transfer, gas to solvent ([2]; Butan-1-ol, 25 C): 7.25 log10 K
log K of transfer, gas to solvent ([2]; Butan-2-ol, 25 C): 7.07 log10 K
log K of transfer, gas to solvent ([2]; Butanone, 25 C): 8.27 log10 K
log K of transfer, gas to solvent ([2]; Butyronitrile, 25 C): 8.19 log10 K
log K of transfer, gas to solvent ([2]; CCl4, 25 C): 8.05 log10 K
log K of transfer, gas to solvent ([2]; Chloroform, 25 C): 7.86 log10 K
log K of transfer, gas to solvent ([2]; Cyclohexane, 25 C): 7.41 log10 K
log K of transfer, gas to solvent ([2]; Cyclohexanone, 25 C): 8.33 log10 K
log K of transfer, gas to solvent ([2]; Di-n-butyl ether, 25 C): 7.72 log10 K
log K of transfer, gas to solvent ([2]; Ethanol, 25 C): 7.36 log10 K
log K of transfer, gas to solvent ([2]; Heptan-1-ol, 25 C): 7.41 log10 K
log K of transfer, gas to solvent ([2]; Hexadecane, 25 C): 7.63 log10 K
log K of transfer, gas to solvent ([2]; Hexane, 25 C): 7.35 log10 K
log K of transfer, gas to solvent ([2]; Methanol, 25 C): 7.24 log10 K
log K of transfer, gas to solvent ([2]; Octan-1-ol, 25 C): 7.52 log10 K
log K of transfer, gas to solvent ([2]; Pentan-1-ol, 25 C): 7.33 log10 K
log K of transfer, gas to solvent ([2]; Propan-1-ol, 25 C): 7.3 log10 K
log K of transfer, gas to solvent ([2]; Propan-2-ol, 25 C): 7.07 log10 K
log K of transfer, gas to solvent ([2]; Propanone, 25 C): 8.26 log10 K
log K of transfer, gas to solvent ([2]; Propionitrile, 25 C): 8.14 log10 K
log K of transfer, gas to solvent ([2]; Tetrahydrofuran, 25 C): 8.42 log10 K
log K of transfer, gas to solvent ([2]; Water, 25 C): 2.8 log10 K
log K of transfer, water to solvent ([3]; 2-Methylpropan-1-ol, 25 C): 4.21 log10 K
log K of transfer, water to solvent ([3]; 2-Methylpropan-2-ol, 25 C): 4.2 log10 K
log K of transfer, water to solvent ([3]; 3-Methylbutan-1-ol, 25 C): 4.33 log10 K
log K of transfer, water to solvent ([3]; Acetone, 25 C): 5.46 log10 K
log K of transfer, water to solvent ([3]; Acetonitrile, 25 C): 4.93 log10 K
log K of transfer, water to solvent ([3]; Butan-1-ol, 25 C): 4.45 log10 K
log K of transfer, water to solvent ([3]; Butan-2-ol, 25 C): 4.27 log10 K
log K of transfer, water to solvent ([3]; Butanone, 25 C): 5.47 log10 K
log K of transfer, water to solvent ([3]; Butyronitrile, 25 C): 5.39 log10 K
log K of transfer, water to solvent ([3]; CCl4, 25 C): 5.25 log10 K
log K of transfer, water to solvent ([3]; Chloroform, 25 C): 5.06 log10 K
log K of transfer, water to solvent ([3]; Cyclohexane, 25 C): 4.61 log10 K
log K of transfer, water to solvent ([3]; Cyclohexanone, 25 C): 5.53 log10 K
log K of transfer, water to solvent ([3]; Di-n-butyl ether, 25 C): 4.92 log10 K
log K of transfer, water to solvent ([3]; Ethanol, 25 C): 4.56 log10 K
log K of transfer, water to solvent ([3]; Heptan-1-ol, 25 C): 4.61 log10 K
log K of transfer, water to solvent ([3]; Hexadecane, 25 C): 4.83 log10 K
log K of transfer, water to solvent ([3]; Hexane, 25 C): 4.55 log10 K
log K of transfer, water to solvent ([3]; Methanol, 25 C): 4.44 log10 K
log K of transfer, water to solvent ([3]; Octan-1-ol(dry), 25 C): 4.72 log10 K
log K of transfer, water to solvent ([3]; Pentan-1-ol, 25 C): 4.53 log10 K
log K of transfer, water to solvent ([3]; Propan-1-ol, 25 C): 4.5 log10 K
log K of transfer, water to solvent ([3]; Propan-2-ol, 25 C): 4.27 log10 K
log K of transfer, water to solvent ([3]; Propionitrile, 25 C): 5.34 log10 K
log K of transfer, water to solvent ([3]; Tetrahydrofuran, 25 C): 5.62 log10 K
Compound: c1ccc2c(c1)ccc1ccccc12
